Source: ChEMBL document CHEMBL1201862, “PubChem BioAssay data set” (2004)
Activity calls are given as the source filed them.

Key:
[1] = tested on: HEK293; assay: viability loss in HEK293T cells – cell-based, ATP luminescence, cherry-pick samples, cytotoxicity control, dose response (AID 687005); assay type: functional; conditions: Homo sapiens;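 further: cells exposed to compound for 48 hours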
[2] = HEK293 Cytotoxicity Assay Measured in Cell-Based System Using Plate Reader - 7071-01_Inhibitor_Dose_CherryPick_Activity_Set2.; assay type: functional
[3] = tested on: HeLa; assay: viability loss in HeLa cells – cell-based, ATP luminescence, cherry-pick samples, cytotoxicity control, dose response (AID 687004); assay type: functional; conditions: Homo sapiens
[4] = inhibition of Env-driven cell fusion – HIV entry, plate reader, dry powder, dose response (AID 687023); assay type: functional, cell-based
[5] = molecular target: Fructose-bisphosphate aldolase (Mycobacterium tuberculosis, UniProt P9WQA3); assay: Fluorescence-based biochemical high throughput dose response assay for inhibitors of the fructose-bisphosphate aldolase (FBA) of M. tuberculosis.; assay type: functional
[6] = molecular target: T1, Trace amine-associated receptor 1 (Homo sapiens, UniProt Q96RJ0); assay: Counterscreen for agonists of the human trace amine associated receptor 1 (hTAAR1): Fluorescence-based cell-based high throughput dose response assay to identify hTAAR1 agonist that also desensitize TAAR1 receptor response.; assay type: functional
T1 sequence (Q96RJ0 whole entry): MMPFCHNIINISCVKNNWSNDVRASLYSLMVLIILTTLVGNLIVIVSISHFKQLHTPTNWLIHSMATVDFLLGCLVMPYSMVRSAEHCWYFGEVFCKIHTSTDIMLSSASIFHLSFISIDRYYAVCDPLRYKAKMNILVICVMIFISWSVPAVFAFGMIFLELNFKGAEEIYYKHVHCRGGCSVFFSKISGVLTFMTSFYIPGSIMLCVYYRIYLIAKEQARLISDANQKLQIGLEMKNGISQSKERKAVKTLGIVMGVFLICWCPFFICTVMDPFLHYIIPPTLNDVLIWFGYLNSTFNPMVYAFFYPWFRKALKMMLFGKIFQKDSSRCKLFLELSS

[7] = cells; assay type: functional, cell-based
[8] = molecular target: T1, Trace amine-associated receptor 1; assay: Fluorescence-based cell-based high throughput dose response assay to identify agonists of the human trace amine associated receptor 1 (TAAR1).; assay type: functional
[9] = cells; assay type: functional, cell-based; remark: listed apart in the source
[10] = A549 cell cytotoxicity, dose response, cytotoxicity control, plate reader, cherry-pick, antagonist series (AID 743412); assay type: functional, cell-based
[11] = toxicity toward HepG2 liver cells – cell-based, plate reader, cherry-pick, antagonist series, cytotoxicity control, dose response (AID 743416); assay type: functional
[12] = blockers of bursicon-stimulated LGR2 cAMP reporter – cell-based, HEK293, CRE-luciferase reporter, cherry pick, set 2, dose response (AID 743343); assay type: functional;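 further: transfected cells were stimulated with diluted bursicon conditioned medium after compound addition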
[13] = molecular target: T2, Corticotropin-releasing factor receptor 2/Corticotropin-releasing factor-binding protein (Homo sapiens, UniProt P24387+Q13324); assay: activators of CRF receptor 2 with binding protein – uHTS hits, confirmation (AID 602473); assay type: functional; conditions: read-out: EC50_Mean
T2 sequence (Q13324 whole entry): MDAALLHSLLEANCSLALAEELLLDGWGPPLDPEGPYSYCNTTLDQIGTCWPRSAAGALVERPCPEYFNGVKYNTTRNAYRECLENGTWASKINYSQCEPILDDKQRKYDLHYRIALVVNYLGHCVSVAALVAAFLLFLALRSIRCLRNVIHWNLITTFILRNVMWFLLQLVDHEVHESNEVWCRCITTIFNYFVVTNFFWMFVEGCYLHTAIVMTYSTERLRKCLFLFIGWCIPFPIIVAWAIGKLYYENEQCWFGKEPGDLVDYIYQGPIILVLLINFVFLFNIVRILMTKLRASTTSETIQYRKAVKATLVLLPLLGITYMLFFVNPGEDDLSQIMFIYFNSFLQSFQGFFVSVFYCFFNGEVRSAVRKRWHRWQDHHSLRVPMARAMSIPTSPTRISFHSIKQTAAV
T2 sequence (P24387 whole entry): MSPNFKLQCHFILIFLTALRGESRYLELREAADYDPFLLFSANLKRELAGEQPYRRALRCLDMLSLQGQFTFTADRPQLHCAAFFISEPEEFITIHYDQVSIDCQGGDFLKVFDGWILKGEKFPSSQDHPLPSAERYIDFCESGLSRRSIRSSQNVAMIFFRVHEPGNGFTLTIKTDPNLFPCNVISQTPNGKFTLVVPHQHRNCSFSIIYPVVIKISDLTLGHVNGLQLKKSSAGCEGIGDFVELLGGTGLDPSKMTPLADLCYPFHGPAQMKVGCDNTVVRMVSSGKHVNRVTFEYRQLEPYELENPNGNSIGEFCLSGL

[14] = molecular target: T3, Scavenger receptor class B member 1 (Mus musculus, UniProt Q61009); assay: mouse SR-BI DiI-HDL transfer blockers – ldlA[mSR-BI] CHO cells, fluorescence plate reader, dry powder, set 9, dose response (AID 623880); assay type: functional, cell-based
T3 sequence (Q61009 whole entry): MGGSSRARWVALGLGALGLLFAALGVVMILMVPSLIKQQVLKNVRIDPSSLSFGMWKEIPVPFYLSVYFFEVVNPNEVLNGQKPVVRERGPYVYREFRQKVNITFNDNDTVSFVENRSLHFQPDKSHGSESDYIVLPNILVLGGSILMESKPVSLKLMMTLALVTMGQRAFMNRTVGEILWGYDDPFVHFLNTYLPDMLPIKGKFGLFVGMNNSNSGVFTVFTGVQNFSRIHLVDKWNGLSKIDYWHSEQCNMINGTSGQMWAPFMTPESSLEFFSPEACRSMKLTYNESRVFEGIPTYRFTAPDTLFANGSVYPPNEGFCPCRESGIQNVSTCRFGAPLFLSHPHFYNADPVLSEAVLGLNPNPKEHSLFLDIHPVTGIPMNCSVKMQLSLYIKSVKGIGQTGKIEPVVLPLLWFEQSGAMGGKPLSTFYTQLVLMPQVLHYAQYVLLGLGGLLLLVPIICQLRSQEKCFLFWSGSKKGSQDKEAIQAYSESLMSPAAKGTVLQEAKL

[15] = molecular target: T3, Scavenger receptor class B member 1; assay: blockers of DiI-HDL lipid transfer via SR-BI – cell-based, ldlA[mSR-BI] CHO, DiI fluorescence, dry powder, set 10, dose response (AID 624029); assay type: functional
[16] = reduced cellular PGC1a acetyl-lysine signal – cell-based, cherry-picked samples, dose response (AID 720514); assay type: functional;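 further: potency may reflect raised or lowered acetylation signal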
[17] = Luminescence Cell-Based Dose Retest to Confirm Inhibitors of Cancer Stem Cells. [Related pubchem assays (depositor defined):AID2717, AID2721]; assay type: functional; conditions: Homo sapiens
[18] = molecular target: Paired box protein Pax-8 (Homo sapiens, UniProt Q06710); assay: PAX8 transcriptional activity inhibition in RMG-I – RMG-I cells, luciferase, cherry-pick, dose response (AID 687027); assay type: functional, cell-based;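 further: luciferase reporter driven by Pax8 target thyroperoxidase promoter measured by SteadyGlo luminescence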
[19] = Fluorescence-based cell-based high throughput dose response assay for inhibitors of the interaction of nucleotide-binding oligomerization domain containing 2 (NOD2) and the receptor-interacting serine-threonine kinase 2 (RIPK2).; assay type: functional; conditions: Homo sapiens
[20] = blockade of melanocortin 4 receptor signaling – cell-based, plate reader, cherry pick, counter-screen for LGR2 antagonist project, dose response (AID 743444); assay type: functional;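 further: transfected HEK 293 cells stimulated with alpha-MSH peptide; potency of inhibitors of the alpha-MSH evoked signal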
[21] = viability loss in HEK293 cells – cell-based, plate reader, cherry-picked samples, cytotoxicity control, dose response (AID 743446); assay type: functional
[22] = IGROV1 cell killing – plate reader, dry powder samples, PAX8 inhibitor project, dose response (AID 743043); assay type: functional, cell-based; conditions: IGROV-1
[23] = OVCAR8 cell viability loss – plate reader, dry powder samples, PAX8 project, dose response (AID 743197); assay type: functional, cell-based; conditions: OVCAR-8
[24] = potency of ADAM10 substrate cleavage blockers – biochemical, QFRET, dose response (AID 743254);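 further: ADAM10 enzyme with the DM2 quenched FRET peptide as substrate; EDANS fluorescence gain as the protease cuts the substrate; inhibitor potency against ADAM10 proteolytic activity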
[25] = molecular target: Disintegrin and metalloproteinase domain-containing protein 17 (Homo sapiens, UniProt P78536); assay: inhibition of ADAM17 substrate cleavage – biochemical, quenched FRET substrate, counter-screen for ADAM10 exosite inhibitor project, dose response (AID 743253)
[26] = molecular target: fMet-Leu-Phe receptor (Homo sapiens, UniProt P21462); assay: formyl peptide receptor binders – dose response (AID 519); assay type: functional
[27] = general cell-killing toxicity readout – plate reader, dry powder samples, cytotoxicity control for PAX8 inhibitor project, dose response (AID 743021); assay type: functional, cell-based
[28] = cells; conditions: A549
[29] = viability loss in HepG2 liver cells – cell-based, ATP luminescence, cherry-pick, set 6, cytotoxicity control, dose response (AID 1053125); assay type: functional
[30] = cells; conditions: HEK293
[31] = molecular target: Cytochrome P450 3A4 (Homo sapiens, UniProt P08684);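 further: CYP3A4 tested as one member of a cytochrome P450 panel screen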
[32] = molecular target: Cytochrome P450 2C9 (Homo sapiens, UniProt P11712)
[33] = molecular target: T4, Oxysterols receptor LXR-beta (Homo sapiens, UniProt P55055); assay type: functional, cell-based;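 further: Cell-based luminescence dose-response assay of agonist activity at LXR, run as a confirmatory counterscreen to a daf-12 agonist screen; HEK293 cells with Gal4-LXR fusion and GAL4-driven luciferase reporter; agonist potency from rising luciferase signal of a Gal4-LXR reporter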
T4 sequence (P55055 whole entry): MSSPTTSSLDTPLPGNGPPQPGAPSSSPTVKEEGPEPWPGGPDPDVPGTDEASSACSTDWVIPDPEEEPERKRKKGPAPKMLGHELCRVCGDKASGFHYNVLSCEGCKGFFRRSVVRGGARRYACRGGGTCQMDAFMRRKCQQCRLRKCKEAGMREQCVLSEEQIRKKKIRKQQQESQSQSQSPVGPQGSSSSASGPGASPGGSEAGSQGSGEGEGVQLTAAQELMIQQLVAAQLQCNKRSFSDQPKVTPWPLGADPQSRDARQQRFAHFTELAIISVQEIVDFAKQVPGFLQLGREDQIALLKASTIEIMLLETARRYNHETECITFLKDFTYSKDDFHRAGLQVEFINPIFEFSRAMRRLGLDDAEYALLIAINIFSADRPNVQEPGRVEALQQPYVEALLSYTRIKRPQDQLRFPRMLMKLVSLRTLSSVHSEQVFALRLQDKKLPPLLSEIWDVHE

[34] = cells

Chain of Paired box protein Pax-8 (Q06710 whole entry, the tested form may be a part): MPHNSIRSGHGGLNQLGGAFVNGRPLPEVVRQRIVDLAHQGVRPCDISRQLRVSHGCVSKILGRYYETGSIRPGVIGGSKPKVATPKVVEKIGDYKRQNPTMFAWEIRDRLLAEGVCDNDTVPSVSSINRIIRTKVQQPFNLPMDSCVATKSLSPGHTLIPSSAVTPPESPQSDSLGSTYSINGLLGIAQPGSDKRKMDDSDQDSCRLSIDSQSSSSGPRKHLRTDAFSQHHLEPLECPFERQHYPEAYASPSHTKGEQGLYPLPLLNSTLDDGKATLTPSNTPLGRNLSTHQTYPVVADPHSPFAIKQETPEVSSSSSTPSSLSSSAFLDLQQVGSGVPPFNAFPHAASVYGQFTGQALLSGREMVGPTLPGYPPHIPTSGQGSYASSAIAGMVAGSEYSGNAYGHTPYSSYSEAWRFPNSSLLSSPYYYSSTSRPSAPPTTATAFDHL
Chain of fMet-Leu-Phe receptor (P21462 whole entry): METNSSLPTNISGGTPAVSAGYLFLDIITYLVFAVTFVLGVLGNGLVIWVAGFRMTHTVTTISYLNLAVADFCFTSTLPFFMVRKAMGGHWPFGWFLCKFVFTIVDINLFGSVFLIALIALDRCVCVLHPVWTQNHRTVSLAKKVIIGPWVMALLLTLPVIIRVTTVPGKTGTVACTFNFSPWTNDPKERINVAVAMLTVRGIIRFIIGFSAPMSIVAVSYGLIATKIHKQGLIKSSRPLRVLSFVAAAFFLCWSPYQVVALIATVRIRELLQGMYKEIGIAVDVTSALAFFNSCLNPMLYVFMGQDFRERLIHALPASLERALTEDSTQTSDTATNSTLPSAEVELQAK
Chain of Disintegrin and metalloproteinase domain-containing protein 17 (P78536 whole entry, the tested form may be a part): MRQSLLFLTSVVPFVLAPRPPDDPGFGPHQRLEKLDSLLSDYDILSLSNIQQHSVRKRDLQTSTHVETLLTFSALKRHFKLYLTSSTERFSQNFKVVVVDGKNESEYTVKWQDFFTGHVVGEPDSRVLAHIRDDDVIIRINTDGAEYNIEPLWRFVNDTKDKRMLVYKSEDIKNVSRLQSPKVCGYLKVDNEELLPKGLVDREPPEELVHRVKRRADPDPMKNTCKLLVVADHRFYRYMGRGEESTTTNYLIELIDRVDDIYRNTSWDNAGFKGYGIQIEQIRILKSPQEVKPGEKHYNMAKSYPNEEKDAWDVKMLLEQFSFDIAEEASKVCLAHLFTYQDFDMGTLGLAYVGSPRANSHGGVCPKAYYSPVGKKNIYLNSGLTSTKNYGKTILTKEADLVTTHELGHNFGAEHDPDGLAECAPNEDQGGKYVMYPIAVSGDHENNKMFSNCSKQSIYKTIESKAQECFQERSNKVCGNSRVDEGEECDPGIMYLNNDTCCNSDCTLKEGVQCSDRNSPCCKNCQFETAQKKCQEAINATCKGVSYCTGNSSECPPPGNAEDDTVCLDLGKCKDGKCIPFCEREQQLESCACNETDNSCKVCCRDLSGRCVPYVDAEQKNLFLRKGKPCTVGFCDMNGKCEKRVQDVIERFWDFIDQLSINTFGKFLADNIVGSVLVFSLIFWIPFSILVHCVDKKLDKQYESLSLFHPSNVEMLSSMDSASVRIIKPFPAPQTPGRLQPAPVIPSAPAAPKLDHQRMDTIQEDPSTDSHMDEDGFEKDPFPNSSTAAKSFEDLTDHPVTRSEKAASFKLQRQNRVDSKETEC
Chain of Cytochrome P450 3A4 (P08684 whole entry): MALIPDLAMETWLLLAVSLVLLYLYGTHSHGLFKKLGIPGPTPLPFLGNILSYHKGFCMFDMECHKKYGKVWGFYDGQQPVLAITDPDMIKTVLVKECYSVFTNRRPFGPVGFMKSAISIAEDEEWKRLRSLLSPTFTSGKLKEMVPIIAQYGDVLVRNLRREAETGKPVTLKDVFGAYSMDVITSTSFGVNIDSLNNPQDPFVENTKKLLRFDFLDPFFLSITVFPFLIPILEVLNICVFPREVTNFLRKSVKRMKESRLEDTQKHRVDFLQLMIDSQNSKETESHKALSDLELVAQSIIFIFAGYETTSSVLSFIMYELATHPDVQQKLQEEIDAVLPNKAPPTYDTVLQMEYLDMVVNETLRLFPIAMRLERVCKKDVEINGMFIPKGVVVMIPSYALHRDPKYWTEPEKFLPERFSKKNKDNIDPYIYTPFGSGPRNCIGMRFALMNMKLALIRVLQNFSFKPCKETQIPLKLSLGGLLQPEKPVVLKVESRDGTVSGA
Chain of Fructose-bisphosphate aldolase (P9WQA3 whole entry): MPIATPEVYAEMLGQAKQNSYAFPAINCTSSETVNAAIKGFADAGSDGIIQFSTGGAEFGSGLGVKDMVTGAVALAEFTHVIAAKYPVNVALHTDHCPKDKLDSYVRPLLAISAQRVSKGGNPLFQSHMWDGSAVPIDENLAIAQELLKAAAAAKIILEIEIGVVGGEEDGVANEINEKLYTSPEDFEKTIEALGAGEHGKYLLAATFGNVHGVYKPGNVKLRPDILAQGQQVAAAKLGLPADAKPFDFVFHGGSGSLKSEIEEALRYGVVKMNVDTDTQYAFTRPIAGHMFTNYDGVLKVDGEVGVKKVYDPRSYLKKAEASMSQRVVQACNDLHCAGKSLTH
Chain of Cytochrome P450 2C9 (P11712 whole entry, the tested form may be a part): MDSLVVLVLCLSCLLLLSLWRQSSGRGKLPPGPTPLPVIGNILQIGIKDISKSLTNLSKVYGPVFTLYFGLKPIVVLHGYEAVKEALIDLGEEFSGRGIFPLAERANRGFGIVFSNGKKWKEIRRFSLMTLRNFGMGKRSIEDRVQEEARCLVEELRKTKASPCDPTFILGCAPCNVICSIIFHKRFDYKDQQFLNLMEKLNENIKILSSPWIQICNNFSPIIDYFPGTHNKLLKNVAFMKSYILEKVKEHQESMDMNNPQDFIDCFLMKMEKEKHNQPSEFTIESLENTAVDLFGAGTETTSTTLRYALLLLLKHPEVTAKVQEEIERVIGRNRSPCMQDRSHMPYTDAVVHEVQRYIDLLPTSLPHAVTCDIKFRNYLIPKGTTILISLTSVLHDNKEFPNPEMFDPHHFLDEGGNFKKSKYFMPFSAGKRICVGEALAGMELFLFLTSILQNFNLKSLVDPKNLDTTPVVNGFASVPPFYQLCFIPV

Compound: C[C@@H]1CN([C@H](C)CO)S(=O)(=O)c2ccc(-c3ccccc3)cc2O[C@H]1CN(C)C(=O)C1CCCCC1
- AC50 [1]: 16.2 µM (active)
- AC50 [2]: 16.2 µM (active)
- AC50 [3]: > 52 µM (inactive)

Compound: Cc1noc(C)c1S(=O)(=O)Nc1cccc2c1O[C@@H](CN(C)Cc1ccc(C(F)(F)F)cc1)[C@@H](C)CN([C@@H](C)CO)C2=O
- AC50 [4]: 53.5 µM (active)

Compound: O=C(c1ccccc1)c1ccc(OCC(O)CN2CCOCC2)cc1 (configuration not stated)
- IC50 [5]: > 9.99 µM (inactive)

Compound: COC(=O)[C@]12C[C@H](CC(=O)NCCc3ccccc3OC)C(=O)N(Cc3ccccc3)C1=C[C@H](C(C)(C)C)O[C@@H]2C
- IC50 [6]: 7.35 µM (active)
- EC50 [7]: > 29.9 µM (inactive)
- EC50 [8]: 2.45 µM (active)
- IC50 [9]: > 29.9 µM (inactive)

Compound: CCCCn1nnnc1C(c1cc2ccccc2o1)N1CCN(c2ccncc2)CC1 (configuration not stated)
- AC50 [10]: 32.6 µM (active)
- AC50 [11]: > 52 µM (inactive)
- AC50 [12]: 40.1 µM (active)

Compound: O=C1C2C3C=CC(C3)C2C(=O)N1c1cccc(N2C(=O)C3C4C=CC(C4)C3C2=O)n1 (configuration not stated)
- EC50 [13]: > 53 µM (inactive)
- AC50 [14]: 45.2 µM (active)
- AC50 [15]: > 70 µM (inactive)

Compound: O=C(Cn1ncc(Cl)c(Cl)c1=O)NC(=O)NC1CCCCC1
- AC50 [16]: 4.83 µM (active)
- AC50 [17]: 1.81 µM (active)
- AC50 [10]: 7.17 µM (active)
- AC50 [18]: 2.85 µM (active)
- IC50 [19]: 3.13 µM (active)
- AC50 [20]: 26.2 µM (active)
- AC50 [11]: 7.9 µM (active)
- AC50 [12]: 25.8 µM (active)
- AC50 [21]: 7.89 µM (active)

Compound: C[C@@H]1CCCCO[C@@H](CN(C)Cc2ccc(C(F)(F)F)cc2)[C@H](C)CN([C@@H](C)CO)C(=O)c2cc(NS(=O)(=O)c3ccc(F)cc3)ccc2O1
- AC50 [18]: 5.83 µM (active)
- AC50 [22]: 55.8 µM (active)
- AC50 [23]: > 70 µM (inactive)

Compound: COc1ccc(NC(=O)Cn2nnc(-c3ccccc3)c2COc2ccc3ccccc3c2)cn1
- IC50 [24]: > 7.72 µM (active)
- IC50 [25]: > 69.5 µM (inactive)

Compound: CCOc1ccc(C2C(C(=O)c3ccco3)=C(O)C(=O)N2CCCn2ccnc2)cc1 (configuration not stated)
- Ki [26]: 9.9 µM (active)

Compound: CC(C)CN1CCN(C(=O)COC(=O)c2ccc(S(C)(=O)=O)c([N+](=O)[O-])c2)CC1
- AC50 [16]: 10.6 µM (active)
- AC50 [18]: 13 µM (active)
- AC50 [27]: 22.7 µM (active)

Compound: O=C(C1CCC(Cn2c(=S)[nH]c3ccccc3c2=O)CC1)N1CCN(c2ccccc2)CC1 (configuration not stated)
- IC50 [24]: > 69.5 µM (inactive)
- IC50 [25]: > 69.5 µM (inactive)

Compound: C[C@H]1CN([C@@H](C)CO)C(=O)Cc2cc(NC(=O)CCCCCC(=O)Nc3ccccc3N)ccc2O[C@H]1CN(C)Cc1ccc2c(c1)OCO2
- AC50 [1]: 22.8 µM (active)
- AC50 [2]: 22.8 µM (active)
- AC50 [3]: 51.7 µM (active)

Compound: O=[N+]([O-])c1cccc(Nc2c3ccccc3nc3ccccc23)c1
- AC50 [28]: 46.4 µM (active)

Compound: COc1ccc(CNC(=O)c2sc(=O)n(Cc3ccc(C)cc3)c2C)cc1OC
- AC50 [29]: > 52 µM (inactive)
- AC50 [30]: > 52 µM (inactive)

Compound: C[C@@H]1CN([C@H](C)CO[Si](C)(C)C(C)(C)C)C(=O)c2cc(NC(=O)C3CCCCC3)ccc2O[C@H]1CN(C)C(=O)c1ccc(Cl)cc1
- AC50 [14]: > 70 µM (inactive)
- AC50 [15]: > 70 µM (inactive)

Compound: Cc1cccc(CCNCc2cc3ccc(C)cc3nc2O)c1
- IC50 [6]: 7.79 µM (active)
- EC50 [7]: 24.9 µM (inactive)
- EC50 [8]: 3.44 µM (active)
- IC50 [9]: > 29.9 µM (inactive)

Compound: CCOc1cccc(C(=O)C2=C(O)C(=O)N(Cc3ccco3)C2c2ccncc2)c1 (configuration not stated)
- AC50 [31]: 22.4 µM (inconclusive)
- AC50 [32]: 14.1 µM (inconclusive)
- Ki [26]: > 66.7 µM (inactive)

Compound: NC(=O)c1c(NC(=O)c2ccccc2)sc2c1CCCC2
- EC50 [33]: > 67.6 µM (inactive)
- EC50 [34]: > 67.6 µM (inactive)
